Experimental data published in patent publication US20200407717A1, “METHODS OF MODULATING ANTISENSE ACTIVITY” (Ionis Pharmaceuticals, Inc., priority 2018, published 2020).
In the oligonucleotide strings, read from the 5' end, every base follows the letter of its sugar. An asterisk marks phosphorothioate; unmarked linkages are phosphodiester. Other units and linkages are bracketed, terminal groups are in braces. A string of capitals states the bases alone. e = 2'-O-(2-methoxyethyl) (MOE); {FITC} = fluorescein label; [5mC] = 5-methylcytosine; d = 2'-deoxy (DNA)

Legend:
EGFR [1] = biological target: T1, EGFR (Homo sapiens, UniProt P00533); experiment: Membrane binding assay, EGFR; parameters: purchased ThermoFisher PV3872
Procedure: (§1) A membrane binding assay was performed to test the binding affinities of modified oligonucleotides to EGF and EGFR. Purified recombinant EGF (PHG0311L, ThermoFisher) or EGFR protein (PV3872, ThermoFisher) were incubated with FITC-labeled phosphorothioate oligonucleotide, compound no. 256903 or FITC-labeled phosphate oligonucleotide, PO-ASO, in binding buffer (20 mM Tris-HCl, pH 7.5, 150 mM NaCl, 1 mM DTT, 10% glycerol) for 1 hr at 37° C. Each reaction contained purified EGF at 3 nM to 3 μM or recombinant EGFR at 5 nM to 150 nM. Samples were loaded onto a hyband ECL nitrocellulose membrane (GE Healthcare) and soaked in wash buffer (20 mM Tris-HcCl, pH 7.5, 250 mM NaCl). Protein-bound ASOs were transferred to the membrane by applying a vaccum in a 96-well Bio-Rad Bio-Dot apparatus. After washing, membranes were air-dried and scanned using a phoshoimager (GE Healthcare). Kds were calculated for compound no. 256903 using Prism. The results below represent an average of three replicate experiments. […] In contrast, compound no. 256903 bound to both EGF and EGFR, with a higher affinity for EGFR than for EGF.

Purified recombinant EGF [2] = biological target: T2, Purified recombinant EGF (Homo sapiens, UniProt P01133); experiment: Membrane binding assay, EGF
T2 construct: purchased ThermoFisher PHG0311L
T2 sequence (P01133 971-1023 limits assumed): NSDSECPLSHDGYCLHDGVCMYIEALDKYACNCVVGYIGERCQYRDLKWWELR
Procedure: as §1

Purified recombinant EGF [3] = biological target: T2, Purified recombinant EGF; experiment: Membrane binding assay, EGF; details: [EGF] 2.5 nM
EGFR [4] = biological target: T1, EGFR; experiment: Membrane binding assay, EGFR; parameters: purchased ThermoFisher PV3872; details: EGFR 2.3 nM (head prints [EGF])

Substance: FITC-^mCesTesGes^mCesTesAdsGds^mCds^mCdsTds^mCdsTdsGdsGdsAdsTesTesTesGesAe (antisense {FITC}-e[5mC]*eT*eG*e[5mC]*eT*dA*dG*d[5mC]*d[5mC]*dT*d[5mC]*dT*dG*dG*dA*eT*eT*eT*eG*eA) [compound 256903]
- Relative intensity (%) (EGFR [1]; EGFR 4.7 nM (head prints [EGF])): 9.0%
- interaction with EGFR (EGFR [1]; EGFR 5 nM to 150 nM): bound
- Relative intensity (%) (EGFR [1]; EGFR 9.4 nM (head prints [EGF])): 9.0%
- Relative intensity (%) (EGFR [1]; EGFR 18.8 nM (head prints [EGF])): 10.3%
- Relative intensity (%) (EGFR [1]; EGFR 37.5 nM (head prints [EGF])): 40.5%
- Relative intensity (%) (EGFR [1]; EGFR 75 nM (head prints [EGF])): 80.0%
- Relative intensity (%) (EGFR [1]; EGFR 150 nM (head prints [EGF])): 102.7%
- Kd (EGFR [1]; binding affinity for EGFR, average of three replicate experiments): 51.5 ± 9.3 nM
- interaction with EGF (Purified recombinant EGF [2]; EGF 3 nM to 3 μM): bound
- Relative intensity (%) (Purified recombinant EGF [2]; [EGF] 5 nM): 10.2%
- Relative intensity (%) (Purified recombinant EGF [2]; [EGF] 10 nM): 12.0%
- Relative intensity (%) (Purified recombinant EGF [2]; [EGF] 20.9 nM): 12.8%
- Relative intensity (%) (Purified recombinant EGF [2]; [EGF] 41.9 nM): 13.7%
- Relative intensity (%) (Purified recombinant EGF [2]; [EGF] 93.8 nM): 15.7%
- Relative intensity (%) (Purified recombinant EGF [2]; [EGF] 187.5 nM): 17.0%
- Relative intensity (%) (Purified recombinant EGF [2]; [EGF] 375 nM): 22.3%
- Relative intensity (%) (Purified recombinant EGF [2]; [EGF] 750 nM): 72.3%
- Relative intensity (%) (Purified recombinant EGF [2]; [EGF] 1500 nM): 95.2%
- Relative intensity (%) (Purified recombinant EGF [2]; [EGF] 3000 nM): 97.3%
- Kd (Purified recombinant EGF [2]; binding affinity for EGF, average of three replicate experiments): 570 ± 170 nM
- Relative intensity (%) (Purified recombinant EGF [3]): 8.8%
- Relative intensity (%) (EGFR [4]): 7.0%
